pIC50: −log10 of the molar value.

The target of this experiment is T1, human Werner helicase (WRN-BV08, Uniprot Q14191, amino acids 517-1235 with L1074F point mutation) (Homo sapiens, UniProt Q14191, L1074F).
T1 construct: Uniprot Q14191, amino acids 517-1235 with L1074F point mutation; TEV-cleavable 8×His (C, cleaved yes); made in house; host or cells: Sf9 insect cells (baculovirus)
T1 sequence (Q14191 with tags, fused parts or gaps L1074F limits assumed): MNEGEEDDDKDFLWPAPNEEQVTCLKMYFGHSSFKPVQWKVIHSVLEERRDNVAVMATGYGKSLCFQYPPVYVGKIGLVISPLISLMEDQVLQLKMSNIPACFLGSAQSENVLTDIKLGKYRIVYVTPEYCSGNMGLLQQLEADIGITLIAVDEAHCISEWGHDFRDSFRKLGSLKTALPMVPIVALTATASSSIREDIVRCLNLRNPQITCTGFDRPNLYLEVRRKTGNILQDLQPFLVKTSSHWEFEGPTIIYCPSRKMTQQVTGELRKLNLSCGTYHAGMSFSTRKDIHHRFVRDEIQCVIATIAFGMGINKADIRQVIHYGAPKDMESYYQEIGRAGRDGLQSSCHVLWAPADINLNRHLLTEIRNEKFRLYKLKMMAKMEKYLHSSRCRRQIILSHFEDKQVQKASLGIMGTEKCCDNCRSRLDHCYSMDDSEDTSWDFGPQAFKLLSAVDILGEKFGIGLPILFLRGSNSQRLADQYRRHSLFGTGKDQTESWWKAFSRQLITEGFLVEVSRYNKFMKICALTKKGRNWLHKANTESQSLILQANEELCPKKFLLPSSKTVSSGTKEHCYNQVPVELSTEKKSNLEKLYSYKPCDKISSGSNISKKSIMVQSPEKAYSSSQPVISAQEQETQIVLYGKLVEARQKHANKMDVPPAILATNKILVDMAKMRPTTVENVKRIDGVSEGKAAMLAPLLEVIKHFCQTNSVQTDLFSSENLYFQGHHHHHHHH
Kind of experiment: WRN (BV08) ADP-Glo Assay. The conditions noted are these: 0.15 nM WRN, 5 μM ATP, 0.1 nM DNA duplex, 15 min preincubation, 60 min at 25° C., pH 7.5, 1% DMSO; read-out: ADP-Glo_hWRN_IC50. The class given is biochemical. An outline of the steps: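 ADP-Glo luminescence read-out of ATP hydrolysis. Conditions: 0.15 nM WRN, 5 μM ATP, 0.1 nM DNA duplex, 1% DMSO, 60 min at 25 °C after 15 min compound preincubation. Max/min controls were DMSO and 20 μM NSC-617145; IC50 from four-parameter fit.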
Background: ADP-Glo turns the ADP formed in a reaction into a luminescent signal.
With `CC(C(=O)N(Cc1ccnc(C(C)(C)O)c1)[C@@H]1C=CS(=O)(=O)C1)n1cc(-c2ccc(C(F)(F)F)cc2)cn1` (single isomer, unassigned) [I-788], the pIC50 was 5.00 to 5.30.

Consider `O=C(C(c1ccc(-c2ccc(F)cc2)cc1)C1CC1)N(Cc1ccncc1)C1C=CS(=O)(=O)C1` (stereo not shown) [I-677, 2-cyclopropyl-N-(1,1-dioxo-2,3-dihydro-1lambda6-thiophen-3-yl)-2-{4′-fluoro-[1,1′-biphenyl]-4-yl}-N-[(pyridin-4-yl)methyl]acetamide], for which the pIC50 was 4.30 to 5.00.

`CC(C)(N)c1ccc(CN(C(=O)Cc2ccc(S(F)(F)(F)(F)F)cc2)C2C=CS(=O)(=O)C2)cc1` (stereo not shown) [I-700, N-{[4-(2-aminopropan-2-yl)phenyl]methyl}-N-(1,1-dioxo-2,3-dihydro-1lambda6-thiophen-3-yl)-2-[4-(pentafluoro-lambda6-sulfanyl)phenyl]acetamide]: the pIC50 is 5.00 to 5.30.

In the case of `Cc1cccn1-c1ccc(CC(=O)N(Cc2ccnc(C(C)(C)O)c2)C2C=CS(=O)(=O)C2)c(F)c1` (stereo not shown) [I-66, N-(1,1-dioxo-2,3-dihydro-1lambda6-thiophen-3-yl)-2-[2-fluoro-4-(2-methyl-1H-pyrrol-1-yl)phenyl]-N-{[2-(2-hydroxypropan-2-yl)pyridin-4-yl]methyl}acetamide], the pIC50 is greater than 6.30.

As to `Cc1cccn1-c1ccc(CC(=O)N(Cc2ccnnc2)C2C=CS(=O)(=O)C2)c(F)c1` (stereo not shown) [I-150, N-(1,1-dioxo-2,3-dihydro-1lambda6-thiophen-3-yl)-2-[2-fluoro-4-(2-methyl-1H-pyrrol-1-yl)phenyl]-N-[(pyridazin-4-yl)methyl]acetamide], the pIC50 is 5.30 to 6.30.

Take `O=C(CC1CCC(c2ccccc2)CC1)N(Cc1ccncc1)C1C=CS(=O)(=O)C1` (stereo not shown) [I-416, N-(1,1-dioxo-2,3-dihydro-1lambda6-thiophen-3-yl)-2-(4-phenylcyclohexyl)-N-[(pyridin-4-yl)methyl]acetamide]: the pIC50 is less than 4.30.

As for `COc1ccc2c(c1)CCCC2C(=O)N(Cc1ccncc1)C1C=CS(=O)(=O)C1` (stereo not shown) [I-717, N-(1,1-dioxo-2,3-dihydro-1lambda6-thiophen-3-yl)-6-methoxy-N-[(pyridin-4-yl)methyl]-1,2,3,4-tetrahydronaphthalene-1-carboxamide], the pIC50 is less than 4.30.

In the case of `CS(=O)(=O)N1CCN(C(=O)C(C(=O)N(Cc2ccncc2)C2C=CS(=O)(=O)C2)c2ccc(-c3ccc(F)cc3)cc2)CC1` (stereo not shown) [I-666, N-(1,1-dioxo-2,3-dihydro-1lambda6-thiophen-3-yl)-2-{4′-fluoro-[1,1′-biphenyl]-4-yl}-3-(4-methanesulfonylpiperazin-1-yl)-3-oxo-N-[(pyridin-4-yl)methyl]propanamide], the pIC50 was 5.00 to 5.30.

For the molecule `COc1cc(CN(C(=O)Cc2ccc(S(F)(F)(F)(F)F)cc2)C2C=CS(=O)(=O)C2)ccn1` (stereo not shown) [I-29, N-(1,1-dioxo-2,3-dihydro-1lambda6-thiophen-3-yl)-N-[(2-methoxypyridin-4-yl)methyl]-2-[4-(pentafluoro-lambda6-sulfanyl)phenyl]acetamide], the pIC50 is greater than 6.30.

As for `COc1cc(CN(C(=O)Cc2ccc(S(F)(F)(F)(F)F)cc2)C2C=CS(=O)(=O)C2)nc(N(C)C)n1` (stereo not shown) [I-635, N-{[2-(dimethylamino)-6-methoxypyrimidin-4-yl]methyl}-N-(1,1-dioxo-2,3-dihydro-1lambda6-thiophen-3-yl)-2-[4-(pentafluoro-lambda6-sulfanyl)phenyl]acetamide], the pIC50 is 5.30 to 6.30.

Consider `O=C(Cc1ccc(-n2cccc2)cc1)N(Cc1cccc(F)c1F)C1C=CS(=O)(=O)C1` (stereo not shown) [I-221, N-[(2,3-difluorophenyl)methyl]-N-(1,1-dioxo-2,3-dihydro-1lambda6-thiophen-3-yl)-2-[4-(1H-pyrrol-1-yl)phenyl]acetamide], for which the pIC50 was 5.30 to 6.30.

For the molecule `O=C(Cc1ccc(C(F)(F)F)cc1Br)N(Cc1ccncc1)C1C=CS(=O)(=O)C1` (stereo not shown) [I-293, 2-[2-bromo-4-(trifluoromethyl)phenyl]-N-(1,1-dioxo-2,3-dihydro-1lambda6-thiophen-3-yl)-N-[(pyridin-4-yl)methyl]acetamide], the pIC50 is 4.30 to 5.00.

As for `O=C(/C=C/c1ccc(C(F)(F)F)cc1)N(Cc1ccncc1)C1C=CS(=O)(=O)C1` (stereo not shown) [I-529, (2E)-N-(1,1-dioxo-2,3-dihydro-1lambda6-thiophen-3-yl)-N-[(pyridin-4-yl)methyl]-3-[4-(trifluoromethyl)phenyl]prop-2-enamide], the pIC50 was less than 4.30.

For the molecule `COc1cc(CN(C(=O)Cc2ccc(-n3cccc3C)cc2)C2C=CS(=O)(=O)C2)ccn1` (stereo not shown) [I-119, N-(1,1-dioxo-2,3-dihydro-1lambda6-thiophen-3-yl)-N-[(2-methoxypyridin-4-yl)methyl]-2-[4-(2-methyl-1H-pyrrol-1-yl)phenyl]acetamide], the pIC50 is 5.30 to 6.30.

As to `NS(=O)(=O)c1ccc(CN(C(=O)Cc2ccc(-n3cccc3)cc2)C2C=CS(=O)(=O)C2)cc1` (stereo not shown) [I-184, N-(1,1-dioxo-2,3-dihydro-1lambda6-thiophen-3-yl)-2-[4-(1H-pyrrol-1-yl)phenyl]-N-[(4-sulfamoylphenyl)methyl]acetamide], the pIC50 is 5.30 to 6.30.

`O=C(Cc1ccc(C(F)F)cc1)N(Cc1ccncc1)C1C=CS(=O)(=O)C1` (stereo not shown) [I-317, 2-[4-(difluoromethyl)phenyl]-N-(1,1-dioxo-2,3-dihydro-1lambda6-thiophen-3-yl)-N-[(pyridin-4-yl)methyl]acetamide]: the pIC50 is 4.30 to 5.00.

As to `COc1cc(CN(C(=O)C2Cc3cc(-n4cccc4)ccc32)C2C=CS(=O)(=O)C2)ccn1` (stereo not shown) [I-93, N-(1,1-dioxo-2,3-dihydro-1lambda6-thiophen-3-yl)-N-[(2-methoxypyridin-4-yl)methyl]-3-(1H-pyrrol-1-yl)bicyclo[4.2.0]octa-1,3,5-triene-7-carboxamide], the pIC50 was 5.30 to 6.30.

Regarding `O=C(Cc1ccc(-n2cccc2)cc1)N(Cc1ccc[nH]c1=O)C1C=CS(=O)(=O)C1` (stereo not shown) [I-369, N-(1,1-dioxo-2,3-dihydro-1lambda6-thiophen-3-yl)-N-[(2-oxo-1,2-dihydropyridin-3-yl)methyl]-2-[4-(1H-pyrrol-1-yl)phenyl]acetamide], the pIC50 was 4.30 to 5.00.

As to `O=C(Cc1ccc(S(F)(F)(F)(F)F)cc1)N(Cc1ccncc1)C1C=CS(=O)(=O)C1` (stereo not shown) [I-63, N-(1,1-dioxo-2,3-dihydro-1lambda6-thiophen-3-yl)-2-[4-(pentafluoro-lambda6-sulfanyl)phenyl]-N-[(pyridin-4-yl)methyl]acetamide], the pIC50 was greater than 6.30.

For the molecule `Cc1cccn1-c1ccc(CC(=O)N(Cc2ccnc(C3(O)CCC3)c2)C2C=CS(=O)(=O)C2)c(F)c1` (stereo not shown) [I-65, N-(1,1-dioxido-2,3-dihydrothiophen-3-yl)-2-(2-fluoro-4-(2-methyl-1H-pyrrol-1-yl)phenyl)-N-((2-(1-hydroxycyclobutyl)pyridin-4-yl)methyl)acetamide], the pIC50 was greater than 6.30.

Turning to `O=C(Cc1nc(C2CCCC2)cs1)N(Cc1ccncc1)C1C=CS(=O)(=O)C1` (stereo not shown) [I-440, 2-(4-cyclopentyl-1,3-thiazol-2-yl)-N-(1,1-dioxo-2,3-dihydro-1lambda6-thiophen-3-yl)-N-[(pyridin-4-yl)methyl]acetamide], the pIC50 is less than 4.30.

`O=C(CN1CCN(c2ccccc2)CC1)N(Cc1ccncc1)C1C=CS(=O)(=O)C1` (stereo not shown) [I-557, N-(1,1-dioxo-2,3-dihydro-1lambda6-thiophen-3-yl)-2-(4-phenylpiperazin-1-yl)-N-[(pyridin-4-yl)methyl]acetamide]: the pIC50 is less than 4.30.

Values taken from patent US20260297070A1, “CYCLIC [COMPOUND LEFT OUT] WRN INHIBITORS” (Nimbus Wadjet, Inc., priority 2023, published 2026).
